Here are results for 1 compound from patent US20150366839A1, “Schisantherin A for the treatment of neurodegenerative diseases” (priority 2014, published 2015).

One data set has as its system ERK1/2. Put plainly: ERK phosphorylation after 6-OHDA, Western blot. It is filed as cell-based, Human. How it is done: After treatment, SH-SY5Y cells were washed three times with PBS and then lysis with RIPA lysis buffer containing 1% PMSF and 1% Protease Inhibitor Cocktail and incubated for 30 min on ice. Cell lysates were centrifuged at 12,500 g for 20 min at 4° C. The supernatant was separated and the amount of protein was determined using the BCA protein assay kit (Thermo Scientific Pierce, USA). Protein samples (30 μg) were separated by SDS-PAGE (10% (w/v)) polyacrylamide gel and then transferred to a polyvinylidene difluoride (PVDF) membrane (Bio-Rad, Hercules, Calif.). Subsequently, the membrane was blocked with 5% (v/v) non-fat milk in PBST (PBS containing 0.1% Tween 20) for 1 h at room temperature. The blots were incubated overnight at 4° C. with primary antibodies. After three washes with PBST, the membranes were incubated with horseradish peroxidase-conjugated secondary antibodies (1:2000) in PBST with 5% non-fat milk for 1 h at room temperature. After repeated washes, proteins were visualized with an ECL advanced western blotting detection kit. Photographs of protein bands were taken by a Molecular Imager ChemiDoc XRS (Bio-Rad, Hercules, Calif.). Quantitative assessment of protein bands was done with Gel Doc™ XRS equipped with Quantity One software. […]
A general note: Immunoblotting shows a protein as a band on a membrane.

Data set [1] in a line: Blood brain barrier experiment. It is filed as in vivo, rat. As to the method:
To investigate the capability of permeation of blood brain barrier (BBB). On the experimental day, heart perfusion was chosen to clear blood interference at brain under 10% chloralic hydras (i.p. 250 mg/kg) anesthesia, and brain was collected at scheduled time after dosing.
Brain tissues were thawed and homogenized in precooled saline (at the 1:2 g:ml ratio). 250 μl of homogenized solution was added 200 μl acetonitrile and 150 μl methanol. After vortexing for 20 s, centrifugations at 12,000 rpm for 10 min were for the separation. The denatured protein was separated and the supernatant was collected and filtered through a 0.22 μm membrane. A 20 μl volume of the supernatant was injected into HPLC for analysis.
Quantitative analysis of SchiA was completed on an Agilent series 1260 HPLC apparatus (Agilent Technologies, Santa Clara, Calif., USA) equipped with a vacuum degasser, a quaternary pump, a manual sampler and an ultraviolet detector. RP Phenonenex C-18 column (250 mm×4.6 mm, 5 μm) was used to separate at 35° C. with a mobile phase of water and methanol (83:17, v/v). The flow rate was 1 ml/min. The monitoring wavelength of SchiA was 230 nm.
And then non-compartmental model of DAS 2.0 program was chosen to calculate the major pharmacokinetic parameters.
The treatment of brain disorders drugs should pass through the blood-brain barrier (BBB) to regulate certain receptors in the CNS for producing effect. Thus the inventors examined whether SchiA could pass BBB. […] Generally, drug distribution was depends on the free drug concentration in plasma which could affect the supply to the target disuse. […] P-gp, functioning as an ATP-dependent drug pump, efficiently extrudes intracellular drugs out of cells, especially anticancer drugs. After oral administrated to plasma, lots of SchiA were combined at intestines and hardly entered into brain by passing through the barrier of P-gp. But after an i.v. bolus injection, SchiA which liked an impact was directly entered into systemic circulation and P-gp was saturated with SchiA speedily and SchiA couldn't stay at brain as long as plasma despite the concentration was considerable. Therefore, it is rationalized the SchiA passed through BBB caused by i.v. and it has been hypothesized that P-gp is the major determinant of SchiA pharmacokinetics.

In the case of `COc1cc2c(c(OC)c1OC)-c1c(cc3c(c1OC)OCO3)C[C@H](C)[C@](C)(O)[C@H]2OC(=O)c1ccccc1` [SchiA, Schisantherin A], the “6-OHDA-induced reduction in ERK1/2 phosphorylation” value in the data set on ERK1/2 (60 μM 12 h, then 400 μM 6-OHDA 4 h) is “prevented the reduction in ERK1/2 phosphorylation”. For the same compound, the “phosphorylated ERK1/2 level, compound alone” value in the data set on ERK1/2 (60 μM, without 6-OHDA) is “did not change”. In data set [1] (half an hour post-i.v. bolus injection), the “concentration in brain as % of concentration in plasma” value stood at 54.5%. Further, in data set [1] (i.v.), the “ability to pass the BBB in vivo” value is reported as “able to traverse the BBB in vivo”. For the same compound, in data set [1] (i.v., up to 6 h), the “detection in brain samples” value is recorded as “wasn't detected”. The detection in brain entry in data set [1] (oral administration) is listed as “wasn't detected”.
